Values quoted from earlier work, collected in patent publication US20110293528A1, “ENEMA PREPARATIONS AND THEIR USE” (PHOTOCURE ASA, priority 2008, published 2011).

Experiments:
[1] = system: pre-malignant conditions in the colon (polyps); settings: enemas of 200 mg HAL in 500 ml or 1000 ml phosphate buffered saline (1.6 and 0.8 mmol per litre)
[2] = system: rectal adenoma or rectal cancer; settings: 3.2 mmol per litre HAL, instillation time 30-45 minutes, rest time 30 minutes

For `CCCCCCOC(=O)CCC(=O)CN` [5-aminolevulinic acid hexyl ester], the “more polyps detected by PDD than when using white light endoscopic imaging” value [1] is listed as 28% and the “result of photodynamic detection” value [2] is listed as “satisfactory results”.
